Assay results as given in patent US6703387B2, “Inhibitors of HPV E1 helicase enzyme” (Hoffmann-La Roche Inc., priority 2000, dated 2004).
Counter-ions that a name gives are not always drawn.

Biological target: T1, HPV(11) E1 helicase enzyme (MBP fusion protein), ATPase activity (Human papillomavirus 11, UniProt P04014)
T1 construct: made in house; host or cells: SF9 insect cells, baculovirus expression system
Assay: E1 ATPase activity assay ([γ33P]ATP hydrolysis, charcoal separation)
Format: biochemical
Settings: 20 μM ATP, 1 hour at 37° C., pH 7.0, read-out: Activity (IC50, concentration of test compound which inhibits enzyme activity by 50%)
Protocol: For assaying E1 ATPase activity the HPV E1 enzyme has been prepared and purified as follows:
The HPV(11) E1 used in this assay is expressed as a maltose binding protein (MBP) fusion protein from SF9 cells using a baculovirus expression system. Frozen pellets of these cells are thawed by adding the pellet directly into a buffer at 4 OC containing 50 mM Tris-HCl pH 7.5, 20 mM dithiothreitol (DTT), 1 mM EDTA, 600 mM NaCl, 20% glycerol and 3 “Complete” protease inhibitor tablets/50 ml (Boehringer Mannheim cat.no.1 697 498). The cell suspension is then sonicated for 3×10 seconds before centrifuging at 18000 rpm for 30 minutes to remove the cell debris. The clarified extract is then passed down a DE52 ion exchange column which is washed with a buffer containing 50 mM Tris-HCl pH 7.5, 2 mM DTT, 1 mM EDTA, 600 mM NaCl and 20% glycerol. The column flow through plus the first 10 mls of wash buffer are then passed down an amylose affinity column which binds MBP tagged proteins. This column is washed with 3 column bed volumes of the wash buffer before being eluted with wash buffer containing 10 mM maltose. The eluted protein peak containing purified HPV(11) E1 is then dialysed overnight against 2 L of buffer containing 20 mM Tris-HCl pH 7.5, 2 mM DTT, 20 mM NaCl and 20% glycerol. The dialyzed material is used in the assay.
E1 ATPase activity can be measured as follows:
The standard reaction contains 50 mM MOPs KOH pH 7.0, 500 μM MgCl2, 20 μM ATP, 50 mM NaCl, 40 μl of a suitably diluted enzyme extract and 10 μl of inhibitor in a final volume of 100 μl. The ATP contains 0.1 μCi [γ^33P]ATP per reaction. The enzyme diluent contains 50 mM MOPs KOH pH7.0 and 1 mg/ml BSA. The inhibitor is diluted to give a range of concentrations in neat DMSO. Reaction tubes are incubated for 1 hour at 37° C. (producing linear kinetics) after which the reaction is terminated by heat inactivation at 85° C. for 2 minutes. 500 μl 15% activated charcoal in PBS is then added to each reaction. The activated charcoal used is 100-400 mesh untreated powder (Sigma cat No C-5260); prior to use in the assay this is washed in PBS several times and allowed to settle out under gravity, any fine particles still in suspension being decanted off after each wash. The reactions are left on ice for 1 hour after which the charcoal is pelleted out by centrifugation at 14000 rpm for 10 minutes. The charcoal pellet contains unconverted [γ^33P]ATP, whilst any free inorganic ^33P, the reaction product, will remain in the supernatant. The amount of radioactivity present in 300 μl of supernatant is then measured by scintillation spectrophotometry.
The results can be calculated as follows:
The degree of inhibition at each inhibitor concentration is expressed as a percentage of the control reaction (100%) after subtracting a measured blank value, which represents the amount of free inorganic ^33P present in a reaction containing heat inactivated enzyme. An IC50 value (concentration of test compound which inhibits enzyme activity by 50%) is then calculated from a dose response curve of log10 inhibitor concentration against percentage of the control reaction.

T1 sequence (P04014 whole entry, the tested form may be a part): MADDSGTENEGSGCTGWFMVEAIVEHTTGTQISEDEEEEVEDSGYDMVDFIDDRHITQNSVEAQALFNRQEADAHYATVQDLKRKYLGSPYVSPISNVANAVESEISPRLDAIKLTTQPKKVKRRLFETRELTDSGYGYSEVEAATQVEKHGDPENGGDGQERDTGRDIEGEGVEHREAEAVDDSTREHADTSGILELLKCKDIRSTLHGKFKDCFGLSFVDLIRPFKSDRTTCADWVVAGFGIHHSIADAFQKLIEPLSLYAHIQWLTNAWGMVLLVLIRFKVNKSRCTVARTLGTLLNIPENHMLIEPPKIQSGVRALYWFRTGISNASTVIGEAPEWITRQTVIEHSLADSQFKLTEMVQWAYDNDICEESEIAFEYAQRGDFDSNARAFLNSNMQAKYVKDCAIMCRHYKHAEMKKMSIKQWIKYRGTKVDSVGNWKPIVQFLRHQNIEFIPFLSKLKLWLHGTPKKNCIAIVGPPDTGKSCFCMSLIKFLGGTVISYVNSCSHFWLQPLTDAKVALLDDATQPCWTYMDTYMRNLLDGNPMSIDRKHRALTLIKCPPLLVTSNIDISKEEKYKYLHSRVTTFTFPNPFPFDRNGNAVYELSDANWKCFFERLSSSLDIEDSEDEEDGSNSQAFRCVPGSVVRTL

Row | SMILES | IC50
1 | CN1CCN=C(/C=C/c2ccc(Cl)c(Cl)c2)c2ccc(-c3cccs3)cc21 [Example 164, (E)-5-(3,4-Dichlorostyryl)-2,3-dihydro-1-methyl-8-(2-thienyl)-1H-1,4-benzodiazepine hydrochloride] | 12 µM
2 | O=C(O)CN1CCN=C(/C=C/c2ccc(Cl)c(Cl)c2)c2ccccc21 [Example 137, (E)-5-(3,4-Dichlorostyryl)-2,3-dihydro-1H-1,4-benzodiazepine-1-acetic acid] | 20 µM
3 | CN1CCN=C(/C=C/c2ccccc2Sc2ccc(Cl)cc2)c2ccccc21 [Example 121, (E)-5-[2-(4-Chlorophenylthio)styryl]-2,3-dihydro-1-methyl-1H-1,4-benzodiazepine dihydrochloride] | 1.6 µM
4 | O=C(c1ccccc1)N1CCN=C(/C=C/c2ccc(Cl)c(Cl)c2)c2ccccc21 [Example 125, (E)-1-Benzoyl-5-(3,4-dichlorostyryl)-2,3-dihydro-1H-1,4-benzodiazepine hydrochloride] | 5.6 µM
5 | O=C(O)c1cccc(CN2CCN=C(/C=C/c3ccc(Cl)c(Cl)c3)c3ccccc32)c1 [Example 133, (E)-3-[[5-(3,4-Dichlorostyryl)-2,3-dihydro-1H-14-benzodiazepin-1-yl]methyl]benzoic]acid hydrochloride] | 3.1 µM
6 | CN1CCN=C(/C=C/c2cnccc2-c2cccc(Br)c2)c2ccc(Br)cc21 [Example 42, (E)-8-Bromo-5-[2-[4-(3-bromophenyl)-3-pyridyl]vinyl]-2,3-dihydro-1-methyl-1H-1,4-benzodiazepine dihydrochloride] | 2.4 µM
7 | CN1CCN=C(/C=C/c2cnccc2-c2cccc(Br)c2)c2ccccc21 [Example 6, (E)-5-[2-[4-(3-Bromophenyl)-3-pyridyl]vinyl]-2,3-dihydro-1-methyl-1H-1,4-benzo-diazepine dihydrochloride] | 4.2 µM
8 | CN1CCN=C(/C=C/c2ccc(C#N)c(SCc3ccc(Cl)cc3)n2)c2ccc(Br)cc21 [Example 44, (E)-6-[2-(8-Bromo-2,3-dihydro-1-methyl-1H-1,4-benzodiazepin-5-yl)vinyl]-2-(4-chlorobenzylthio)-3-pyridinecarbonitrile dihydrochloride] | 2.5 µM
9 | CN1CCN=C(/C=C/c2cccc(Oc3ccccc3)c2)c2ccccc21 [Example 3, (E)-2,3-Dihydro-1-methyl-5-(3-phenoxystyryl)-1H-1,4-benzodiazepine dihydrochloride] | 2.4 µM
10 | O=C(O)c1ccc(CN2CCN=C(/C=C/c3ccc(Cl)c(Cl)c3)c3ccccc32)cc1 [Example 132, (E)-4-[[5-(3,4-dichlorostyryl)-2,3-dihydro-1H-1,4-benzodiazepin-1-yl]methyl]benzoic acid dihydrochloride] | 4.4 µM
11 | COC(=O)c1ccc(CN2CCN=C(/C=C/c3ccc(Cl)c(Cl)c3)c3ccccc32)cc1 [Example 127, Methyl (E)4-[[5-(3,4-dichlorostyryl)-2,3-dihydro-1H-1,4-benzodiazepin-1-yl]methyl]benzoate dihydrochloride] | 2.2 µM
12 | CN1CCN=C(/C=C/c2ccc(Cl)c(Cl)c2)c2cccnc21 [Example 29, (E)-5-(3,4-Dichlorostyryl)-2,3-dihydro-1-methyl-1H-pyrido[2,3-e][1,4]diazepine hydrochloride (1:3)] | 3 µM
13 | CC(C)N1CCN=C(/C=C/c2ccc(Cl)c(Cl)c2)c2ccccc21 [Example 123, (E)-5-(3,4-Dichlorostyryl)-2,3-dihydro-1-isopropyl-1H-1,4-benzodiazepine dihydrochloride] | 2 µM
14 | CCOC(=O)c1ncn2c1CN=C(/C=C/c1ccc(Cl)c(Cl)c1)c1ccccc1-2 [Example 139, Ethyl (E)-6-(3,4-dichlorostyryl)-4H-imidazo[1,5-a]benzodiazepine-3-carboxylate] | 20 µM
15 | Cc1cc(C)n(COc2cccc(/C=C/C3=NCCN(C)c4ccccc43)c2)n1 [Example 92, (E)-2,3-Dihydro-1-methyl-5-[3-[(3,5-dimethyl-1-pyrazolyl)methoxy]-styryl]-1H-1,4-benzodiazepine dihydrochloride] | 19 µM
16 | FC(F)(F)c1cccc2c1NCCN=C2/C=C/c1ccc(Cl)c(Cl)c1 [Example 38, (E)-5-(3,4-Dichlorostyryl)-9-(trifluoromethyl)-2,3-dihydro-1H-1,4-benzodiazepine dihydrochloride] | 5.6 µM
17 | CN1CCN=C(/C=C/c2ccc(Cl)c(Cl)c2)c2cc(NS(C)(=O)=O)ccc21 [Example 162, (E)-N-[5-(3,4-Dichlorostyryl)-2,3-dihydro-1-methyl-1H-1,4-benzodiazepin-7-yl]methanesulfonamide] | 8.6 µM
